# Measurements published in patent publication US8609674B2, “Potassium channel modulators” (AbbVie Inc., priority 2010, dated 2013).
# Tests used:
# [1] = test system: capsaicin-induced secondary mechanical hyperalgesia; experiment: Capsaicin-induced secondary mechanical hypersensitivity; type: in vivo, Sprague-Dawley rats; conditions: rat, about 30 mg/kg i.p., 30 min before testing, 180 min after capsaicin
# Description: (§1) Adult male Sprague-Dawley rats (250-300 g body weight, Charles River Laboratories, Portage, Mich.) were used. Animal handling and experimental protocols were approved by the Institutional Animal Care and Use Committee (IACUC) at Abbott Laboratories. For all surgical procedures, animals were maintained under isoflurane anesthesia (4-5% to induce, 1-3% to maintain), and the incision sites were sterilized using a 10% povidone-iodine solution prior to and after surgeries.
# Rats were allowed to acclimate to the study room for 1 hour. They were then briefly restrained, and capsaicin was administered at 10 μg in 10 μl of vehicle (10% ethanol and 2-hydroxypropyl cyclodextrin) by intraplantar injection into the center of the right hind paw. Secondary mechanical hyperalgesia was measured at the heel away from the site of injection at 180 min following capsaicin (Joshi et al 2006, Neuroscience 143, 587-596). Compounds were injected (i.p.) 30 min before testing (150 min post-capsaicin).
# (§2) Tactile (mechanical) allodynia was measured using calibrated von Frey filaments (Stoelting, Wood Dale, Ill.) as described in Chaplan, S. R., F. W. Bach, J. M. Pogrel, J. M. Chung and T. L. Yaksh, 1994, Quantitative assessment of tactile allodynia in the rat paw, J. Neurosci. Methods, 53, 55. Rats were placed into inverted individual plastic containers (20×12.5×20 cm) on top of a suspended wire mesh grid, and acclimated to the test chambers for 20 minutes. […] A 50% withdrawal threshold was determined using an up-down procedure (Dixon, W. J., 1980, Efficient analysis of experimental observations, Ann. Rev. Pharmacol. Toxicol., 20, 441). […] Tactile allodynia thresholds were also assessed in several control groups, including naive, sham-operated, and saline infused animals as well as in the contralateral paws of nerve-injured rats. To evaluate the anti-nociceptive effects, animals were administered vehicle or test compound and tactile allodynia was assessed 30 minutes after i.p. administration.
# Tactile allodynia was measured as described above.
# human KCNQ4 = biological target: T1, human KCNQ4 (Homo sapiens, UniProt P56696); experiment: KCNQ4 thallium influx FLIPR TETRA assay; type: cell-based; conditions: for EC50: HEK293 cells stably expressing human KCNQ4, Tl+ influx; for Emax: maximum response relative to 10 μM retigabine (=100%), read-out: KCNQ4 Max. %
# T1 construct: expressed in transfected cells; host or cells: HEK293
# Procedure: (§3) The following example describes the assay that may be used to identify compounds that activate KCNQ4 or KCNQ5 channels.
# (§4) The assays were performed using a FLIPR^TETRA (Molecular Devices, Sunnyvale, Calif.) in 384-well format. HEK293 cells stably expressing human KCNQ4 or KCNQ5 were seeded in 384-well, black-walled, clear-bottomed, poly-D-lysine coated plates (Greiner Bio-One, Germany) at a density of 1.5×10^4 cells per well, 24 hours before the assay. On the assay day, BTC-AM dye was loaded into the cells by replacing the cell culture medium with 30 μL/well of 2.8 μM dye in DPBS. Dye loading was allowed to proceed for 2 hours at room temperature and then cells were washed once in 30 μL/well of assay buffer (in mM: 10 HEPES pH 7.3, 5 glucose, 140 Na-gluconate, 2.5 K-gluconate, 3.6 Ca-gluconate, 2 MgSO4, 0.1 Ouabain) to remove unloaded dye. Cells were incubated in 30 μL of assay buffer before loading onto a FLIPR^TETRA system. Compounds to be assayed were added to the cells as 4× of final concentration in 15 μL of assay buffer and incubated for 4 minutes at room temperature. The influx signal was initiated by adding 15 μL of assay buffer containing 4.2 mM TlNO3 and 7 mM K2SO4. Tl^+ influx signals were recorded for 3 minutes. Tl^+ influx signal was quantified as light unit changes after Tl^+ addition using the “SUM” statistic from the FLIPR^TETRA software. Sums of the responses over basal responses were plotted versus concentrations of test compounds to obtain an EC50 value and the points fit with a nonlinear regression curve using GraphPad Prism software (GraphPad Software Inc., San Diego, Calif.). EC50 values were calculated from the resulting sigmoidal dose-response curves. The maximum response for each test compound was determined relative to the response produced by 10 μM retigabine. The maximum response of retigabine at 10 μM was set at 100%.
# [2] = biological target: T2, human KCNQ2 and KCNQ3 subunits (KCNQ2/3 channels) (Homo sapiens, UniProt O43525+O43526); experiment: KCNQ2/3 thallium influx FLIPR assay (BTC-AM dye); type: cell-based; conditions: for EC50: HEK293 cells stably expressing human KCNQ2 and KCNQ3, Tl+ influx; for Emax: maximum response relative to 10 μM retigabine (=100%), read-out: KCNQ2/3 Max. %
# T2 construct: expressed in transfected cells; host or cells: HEK293
# Procedure: The following example describes the assay that may be used to identify compounds that activate KCNQ2/3 channels.
# HEK293 cells stably expressing human KCNQ2 and KCNQ3 subunits were seeded in 96-well, black-walled, clear-bottomed, poly-D-lysine coated plates (BD Biosciences, Bedford, Mass.) at a density of 1×10^5 cells per well 24 hours before the assay. On the assay day, BTC-AM dye (Invitrogen, Carlsbad, Calif.) was loaded into the cells by replacing the cell culture medium with 55 μL/well of 3 μg/ml dye in Dulbecco's Phosphate Buffered Saline (DPBS) (Invitrogen). Dye loading was allowed to proceed for 2 hours at room temperature and then cells were washed twice with 50 μL/well of assay buffer (in mM: 10 HEPES pH 7.3, 5 glucose, 140 Na-gluconate, 2.5 K-gluconate, 3.6 Ca-gluconate, 2 MgSO4, 0.1 Ouabain) to remove unloaded dye. Cells were incubated in 50 μL of assay buffer before loading onto a FLIPR system (Molecular Devices, Sunnyvale, Calif.). Various concentrations of compounds to be assayed were added to the cells in 50 μL of assay buffer and incubated for 4 minutes. The fluorescence signal was initiated by adding 100 μL of assay buffer containing 6 mM TlNO3 and 10 mM K2SO4. Fluors were excited using the 488-nm line of an argon laser and emission was filtered using a 540±30 nm bandpass filter. Fluorescent signals were recorded for 3 minutes. Sums of the responses over basal responses were plotted versus concentrations of test compounds to obtain an EC50 value and the points fit with a nonlinear regression curve using GraphPad Prism software (GraphPad Software Inc., San Diego, Calif.). EC50 values were calculated from the resulting sigmoidal dose-response curves. The maximum response for each test compound was determined relative to the response produced by 10 μM retigabine. The maximum response of retigabine at 10 μM was set at 100%.
# human KCNQ5 = biological target: T3, human KCNQ5 (Homo sapiens, UniProt Q9NR82); experiment: KCNQ5 thallium influx FLIPR TETRA assay; type: cell-based; conditions: for EC50: HEK293 cells stably expressing human KCNQ5, Tl+ influx; for Emax: maximum response relative to 10 μM retigabine (=100%), read-out: KCNQ5 Max. %
# T3 construct: expressed in transfected cells; host or cells: HEK293
# Procedure: as §3, §4
# [3] = test system: chronic constriction injury-induced neuropathic pain; experiment: Chronic constriction injury (CCI) model of neuropathic pain (Bennett model); type: in vivo, Sprague-Dawley rats; conditions: rat CCI model, about 30 mg/kg i.p., 30 minutes or more before testing
# Description: as §1
# as §2, with “55.” for “55. Rats were placed into inverted individual plastic containers (20×12.5×20 cm) on top of a suspended wire mesh grid, and acclimated to the test chambers for 20 minutes.”, “administration. […]” for “administration.”
# [4] = test system: spinal nerve ligation-induced neuropathic pain; experiment: Spinal nerve ligation (SNL) model of neuropathic pain; type: in vivo, Sprague-Dawley rats; conditions: rat SNL model, about 30 mg/kg i.p., 30 minutes or more before testing
# Description: as §1
# as §2, with “55.” for “55. Rats were placed into inverted individual plastic containers (20×12.5×20 cm) on top of a suspended wire mesh grid, and acclimated to the test chambers for 20 minutes.”, “administration. […]” for “administration.”
SMILES,change in paw withdrawal latency versus vehicle (tactile allodynia) [1],EC50 (human KCNQ4) [µM],Emax (human KCNQ4) [%],EC50 [2] [µM],Emax [2] [%],EC50 (human KCNQ5) [µM],Emax (human KCNQ5) [%],change in paw withdrawal latency versus vehicle (mechanical allodynia) [3],change in paw withdrawal latency versus vehicle (tactile allodynia) [4]
"CC1(C)[C@H]2CC[C@@H](CC(=O)Nn3c(C4CC4)nc4ccccc4c3=O)[C@@H]1C2 [Example 5, N-(2-cyclopropyl-4-oxoquinazolin-3(4H)-yl)-2-[(1S,2S,5S)-6,6-dimethylbicyclo[3.1.1]hept-2-yl]acetamide]",statistically significant change in paw withdrawal latency versus vehicle,> 30,6,< 0.1,93,> 30,50,–,–
"CCc1nc2ccccc2c(=O)n1NC(=O)C[C@@H]1CC[C@H]2C[C@@H]1C2(C)C [Example 2, 2-[(1S,2S,5S)-6,6-dimethylbicyclo[3.1.1]hept-2-yl]-N-(2-ethyl-4-oxoquinazolin-3(4H)-yl)acetamide]",statistically significant change in paw withdrawal latency versus vehicle,> 30,22,0.1 to 0.5,109,> 30,294,–,–
"CC(C)c1nc2ccccc2c(=O)n1NC(=O)C[C@@H]1CC[C@H]2C[C@@H]1C2(C)C [Example 1, 2-[(1S,2S,5S)-6,6-dimethylbicyclo[3.1.1]hept-2-yl]-N-[4-oxo-2-(propan-2-yl)quinazolin-3(4H)-yl]acetamide]",statistically significant change in paw withdrawal latency versus vehicle,> 30,22,< 0.1,103,> 30,164,statistically significant change in paw withdrawal latency versus vehicle,statistically significant change in paw withdrawal latency versus vehicle
"CC1(C)[C@H]2CC[C@@H](CC(=O)Nn3c(C4CC4)nc4sccc4c3=O)[C@@H]1C2 [Example 15, N-(2-cyclopropyl-4-oxothieno[2,3-d]pyrimidin-3(4H)-yl)-2-[(1S,2S,5S)-6,6-dimethylbicyclo[3.1.1]hept-2-yl]acetamide]",–,> 30,21,0.1 to 0.5,149,> 30,210,–,statistically significant change in paw withdrawal latency versus vehicle
"CC(C)c1nc2ccccc2c(=O)n1NC(=O)C[C@H]1C[C@H]2C[C@@H](C1F)C2(C)C (stereo partly drawn) [Example 23, 2-[(1R,3R,5S)-2-fluoro-6,6-dimethylbicyclo[3.1.1]hept-3-yl]-N-[4-oxo-2-(propan-2-yl)quinazolin-3(4H)-yl]acetamide]",–,0.1 to 0.5,229,0.1 to 0.5,155,0.1 to 0.5,633,–,–
"CC1(C)[C@H]2CC[C@@H](CC(=O)Nn3c(C4CC4)nc4cc(C(F)(F)F)ccc4c3=O)[C@@H]1C2 [Example 4, N-[2-cyclopropyl-4-oxo-7-(trifluoromethyl)quinazolin-3(4H)-yl]-2-[(1S,2S,5S)-6,6-dimethylbicyclo[3.1.1]hept-2-yl]acetamide]",–,> 30,1,> 30,3,> 30,12,–,–
"CC(C)c1nc2ccccc2c(=O)n1NC(=O)CC1CC2CC1C2 (racemic) [Example 22, (±)-2-(bicyclo[2.1.1]hex-2-yl)-N-[4-oxo-2-(propan-2-yl)quinazolin-3(4H)-yl]acetamide]",–,1 to 10,255,< 0.1,179,1 to 10,857,–,–
"Cc1nc2ccccc2c(=O)n1NC(=O)C[C@@H]1CC[C@H]2C[C@@H]1C2(C)C [Example 17, 2-[(1S,2S,5S)-6,6-dimethylbicyclo[3.1.1]hept-2-yl]-N-(2-methyl-4-oxoquinazolin-3(4H)-yl)acetamide]",–,> 30,3,1 to 10,97,> 30,14,–,–
"CC(C)c1nc2ccccc2c(=O)n1NC(=O)COC[C@@H]1CC[C@H]2C[C@@H]1C2(C)C [Example 8, 2-[(1S,2R,5S)-(6,6-dimethylbicyclo[3.1.1]hept-2-yl)methoxy]-N-[4-oxo-2-(propan-2-yl)quinazolin-3(4H)-yl]acetamide]",–,> 30,57,0.5 to 1,132,> 30,52,–,–
